Tests used:
Type in all cases: cell-based
BaF3_EGFRWT cells = BaF3_EGFRWT cells (Homo sapiens, UniProt P00533); test: Cell growth inhibition assay (CellTiterGlo), BaF3_EGFRWT; conditions: cell growth inhibition, 80 ng/mL EGF, 3 days treatment, read-out: EGFR WT IC50
BaF3_HER2WT cells = BaF3_HER2WT cells (Homo sapiens, UniProt P04626); test: Cell growth inhibition assay (CellTiterGlo), BaF3_HER2WT; conditions: cell growth inhibition, 3 days treatment, read-out: HER2 WT IC50
BaF3_HER2YVMA cells = BaF3_HER2YVMA cells (Homo sapiens, UniProt P04626, DUP772-775, cells depend on it); test: Cell growth inhibition assay (CellTiterGlo), BaF3_HER2YVMA; conditions: cell growth inhibition, 3 days treatment, read-out: HER2 - YVMA IC50
Chain of BaF3_HER2YVMA cells (P04626 with tags, fused parts or gaps DUP772-775): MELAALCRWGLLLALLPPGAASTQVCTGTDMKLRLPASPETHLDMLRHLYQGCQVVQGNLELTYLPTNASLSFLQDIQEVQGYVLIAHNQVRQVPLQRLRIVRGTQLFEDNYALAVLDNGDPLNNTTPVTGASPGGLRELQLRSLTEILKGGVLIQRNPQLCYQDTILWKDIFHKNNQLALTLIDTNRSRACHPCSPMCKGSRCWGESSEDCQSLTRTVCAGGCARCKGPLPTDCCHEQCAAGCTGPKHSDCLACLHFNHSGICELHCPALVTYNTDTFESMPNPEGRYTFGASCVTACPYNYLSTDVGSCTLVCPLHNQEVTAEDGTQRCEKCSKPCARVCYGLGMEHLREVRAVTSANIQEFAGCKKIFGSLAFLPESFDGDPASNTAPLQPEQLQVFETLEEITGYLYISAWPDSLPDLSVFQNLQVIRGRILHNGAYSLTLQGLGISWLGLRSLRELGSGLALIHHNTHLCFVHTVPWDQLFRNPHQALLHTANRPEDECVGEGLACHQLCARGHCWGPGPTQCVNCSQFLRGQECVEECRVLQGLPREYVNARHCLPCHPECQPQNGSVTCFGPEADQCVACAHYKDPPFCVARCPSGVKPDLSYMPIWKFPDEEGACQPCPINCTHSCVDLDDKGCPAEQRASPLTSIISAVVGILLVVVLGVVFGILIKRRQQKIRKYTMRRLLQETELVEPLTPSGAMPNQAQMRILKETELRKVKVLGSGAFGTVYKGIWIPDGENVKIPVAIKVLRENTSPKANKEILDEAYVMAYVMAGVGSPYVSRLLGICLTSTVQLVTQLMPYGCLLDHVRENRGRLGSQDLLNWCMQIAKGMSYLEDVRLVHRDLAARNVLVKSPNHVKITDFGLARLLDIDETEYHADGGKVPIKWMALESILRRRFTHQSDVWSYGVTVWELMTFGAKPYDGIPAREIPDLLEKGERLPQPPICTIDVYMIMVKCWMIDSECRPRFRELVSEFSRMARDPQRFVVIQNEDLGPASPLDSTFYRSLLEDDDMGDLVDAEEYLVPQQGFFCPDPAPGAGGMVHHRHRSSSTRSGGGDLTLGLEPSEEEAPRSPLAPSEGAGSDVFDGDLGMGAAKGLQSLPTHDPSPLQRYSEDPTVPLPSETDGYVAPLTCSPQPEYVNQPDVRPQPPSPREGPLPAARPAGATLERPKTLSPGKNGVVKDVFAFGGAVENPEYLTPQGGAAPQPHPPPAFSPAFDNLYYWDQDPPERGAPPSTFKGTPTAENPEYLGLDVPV

Chain of BaF3_EGFRWT cells (P00533 whole entry, change not shown): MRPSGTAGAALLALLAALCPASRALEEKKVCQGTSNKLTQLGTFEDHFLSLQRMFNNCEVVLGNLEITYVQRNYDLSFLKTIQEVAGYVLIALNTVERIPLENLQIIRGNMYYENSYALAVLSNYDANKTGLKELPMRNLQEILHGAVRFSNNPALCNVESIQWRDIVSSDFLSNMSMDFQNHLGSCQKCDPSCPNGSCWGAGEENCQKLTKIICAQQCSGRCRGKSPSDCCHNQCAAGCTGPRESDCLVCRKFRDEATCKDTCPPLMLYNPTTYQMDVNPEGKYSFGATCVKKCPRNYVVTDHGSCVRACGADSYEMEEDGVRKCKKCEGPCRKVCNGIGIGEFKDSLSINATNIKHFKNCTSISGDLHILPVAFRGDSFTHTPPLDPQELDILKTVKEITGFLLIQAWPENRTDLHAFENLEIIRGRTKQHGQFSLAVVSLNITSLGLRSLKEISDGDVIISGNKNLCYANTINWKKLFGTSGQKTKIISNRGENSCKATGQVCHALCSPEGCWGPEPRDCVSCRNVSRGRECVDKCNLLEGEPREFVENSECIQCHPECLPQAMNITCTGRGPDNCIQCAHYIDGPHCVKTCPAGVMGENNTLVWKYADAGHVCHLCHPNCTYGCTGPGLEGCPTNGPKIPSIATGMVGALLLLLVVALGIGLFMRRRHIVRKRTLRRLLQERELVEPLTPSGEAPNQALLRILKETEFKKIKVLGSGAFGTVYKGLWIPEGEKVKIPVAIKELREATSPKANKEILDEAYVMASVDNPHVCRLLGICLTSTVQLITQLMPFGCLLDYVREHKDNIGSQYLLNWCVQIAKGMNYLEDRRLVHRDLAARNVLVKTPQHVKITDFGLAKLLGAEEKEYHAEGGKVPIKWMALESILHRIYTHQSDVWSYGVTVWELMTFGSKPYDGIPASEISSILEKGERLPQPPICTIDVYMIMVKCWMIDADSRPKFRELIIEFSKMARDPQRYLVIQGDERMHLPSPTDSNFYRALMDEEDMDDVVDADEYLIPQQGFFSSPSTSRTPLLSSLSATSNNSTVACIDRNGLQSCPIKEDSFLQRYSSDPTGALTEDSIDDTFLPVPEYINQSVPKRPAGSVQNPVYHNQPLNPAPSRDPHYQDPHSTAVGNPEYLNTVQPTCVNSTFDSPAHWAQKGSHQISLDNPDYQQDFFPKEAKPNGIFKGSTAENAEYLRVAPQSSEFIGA
Chain of BaF3_HER2WT cells (P04626 whole entry, change not shown): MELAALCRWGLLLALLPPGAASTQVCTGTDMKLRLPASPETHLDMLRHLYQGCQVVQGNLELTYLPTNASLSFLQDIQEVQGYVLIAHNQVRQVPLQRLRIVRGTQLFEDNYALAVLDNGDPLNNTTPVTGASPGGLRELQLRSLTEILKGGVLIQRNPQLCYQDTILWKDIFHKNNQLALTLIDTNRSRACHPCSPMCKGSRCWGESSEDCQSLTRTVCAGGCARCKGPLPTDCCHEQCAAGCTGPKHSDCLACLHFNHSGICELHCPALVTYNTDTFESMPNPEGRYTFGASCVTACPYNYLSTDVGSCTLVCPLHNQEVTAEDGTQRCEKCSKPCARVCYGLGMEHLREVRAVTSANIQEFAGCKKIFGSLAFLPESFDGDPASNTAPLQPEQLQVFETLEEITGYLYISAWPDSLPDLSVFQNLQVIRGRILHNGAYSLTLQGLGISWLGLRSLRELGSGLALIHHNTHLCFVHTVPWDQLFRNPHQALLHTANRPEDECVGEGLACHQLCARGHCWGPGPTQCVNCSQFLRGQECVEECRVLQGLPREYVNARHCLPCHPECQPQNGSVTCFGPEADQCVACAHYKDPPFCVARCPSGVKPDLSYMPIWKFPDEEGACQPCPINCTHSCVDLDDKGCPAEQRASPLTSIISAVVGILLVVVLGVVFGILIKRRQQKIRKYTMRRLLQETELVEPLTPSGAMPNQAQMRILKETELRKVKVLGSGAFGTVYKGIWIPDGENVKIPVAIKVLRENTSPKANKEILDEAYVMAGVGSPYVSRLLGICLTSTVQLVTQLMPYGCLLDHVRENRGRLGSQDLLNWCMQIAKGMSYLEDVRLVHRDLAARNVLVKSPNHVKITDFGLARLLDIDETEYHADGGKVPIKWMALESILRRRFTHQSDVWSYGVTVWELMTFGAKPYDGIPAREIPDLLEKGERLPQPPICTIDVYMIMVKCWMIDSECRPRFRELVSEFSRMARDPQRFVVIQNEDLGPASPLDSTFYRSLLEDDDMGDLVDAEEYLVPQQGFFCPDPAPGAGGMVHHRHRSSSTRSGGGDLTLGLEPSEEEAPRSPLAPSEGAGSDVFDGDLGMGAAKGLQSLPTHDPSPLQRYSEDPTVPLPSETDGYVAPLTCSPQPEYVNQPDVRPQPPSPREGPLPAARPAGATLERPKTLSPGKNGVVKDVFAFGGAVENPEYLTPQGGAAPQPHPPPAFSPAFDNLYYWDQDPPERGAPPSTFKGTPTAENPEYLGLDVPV

Compound | GI50 (BaF3_EGFRWT cells) [nM] | GI50 (BaF3_HER2WT cells) [nM] | GI50 (BaF3_HER2YVMA cells) [nM]
Cc1cc(Nc2ncnn3ccc(C4CCCN(C(=O)/C=C/CN(C)C)C4)c23)ccc1Oc1ccn2ncnc2c1 (single isomer, unassigned) [Examples 107 and 108, first eluting isomer, (E)-1-(3-(4-((4-([1,2,4]triazolo[1,5-a]pyridin-7-yloxy)-3-methylphenyl)amino)pyrrolo[2,1-f][1,2,4]triazin-5-yl)piperidin-1-yl)-4-(dimethylamino)but-2-en-1-one] | 1500 to 5000 | < 200 | 500 to 1500
Cc1cc(Nc2ncnn3ccc(C4CCCN(C(=O)/C=C/CN(C)C)C4)c23)ccc1Oc1ccn2ncnc2c1 (single isomer, unassigned) [Examples 107 and 108, second eluting isomer, (E)-1-(3-(4-((4-([1,2,4]triazolo[1,5-a]pyridin-7-yloxy)-3-methylphenyl)amino)pyrrolo[2,1-f][1,2,4]triazin-5-yl)piperidin-1-yl)-4-(dimethylamino)but-2-en-1-one] | 1500 to 5000 | 500 to 1500 | 1500 to 5000
Cc1cc(Nc2ncnn3ccc(C4CCCN(C(=O)/C=C/CN(C)C)CC4)c23)ccc1Oc1ccn2ncnc2c1 (single isomer, unassigned) [Examples 109 and 110, first eluting isomer, (E)-1-(4-(4-((4-([1,2,4]triazolo[1,5-a]pyridin-7-yloxy)-3-methylphenyl)amino)pyrrolo[2,1-f][1,2,4]triazin-5-yl)azepan-1-yl)-4-(dimethylamino)but-2-en-1-one] | 1500 to 5000 | < 200 | < 200
C=CC(=O)N1CCCC(c2ccn3ncnc(Nc4ccc(Oc5ccn6ncnc6c5)c(C)c4)c23)CC1 (single isomer, unassigned) [Examples 111 and 112, first eluting isomer, 1-(4-(4-((4-([1,2,4]triazolo[1,5-a]pyridin-7-yloxy)-3-methylphenyl)amino)pyrrolo-[2,1-f][1,2,4]triazin-5-yl)azepan-1-yl)prop-2-en-1-one] | 1500 to 5000 | < 200 | < 200
Cc1cc(Nc2ncnn3ccc(C4CC5CCC(C4)N5C(=O)/C=C/CN(C)C)c23)ccc1Oc1ccn2ncnc2c1 (single isomer, unassigned) [Examples 122 and 123, first eluting isomer, (E)-1-(−3-(4-((4-([1,2,4]triazolo[1,5-a]pyridin-7-yloxy)-3-methylphenyl)amino)pyrrolo[2,1-f][1,2,4]triazin-5-yl)-8-azabicyclo[3.2.1]octan-8-yl)-4-(dimethylamino)but-2-en-1-one] | 500 to 1500 | < 200 | < 200
Cc1cc(Nc2ncnn3ccc(C4CC5CCC(C4)N5C(=O)/C=C/CN(C)C)c23)ccc1Oc1ccn2ncnc2c1 (single isomer, unassigned) [Examples 122 and 123, second eluting isomer, (E)-1-(3-(4-((4-([1,2,4]triazolo[1,5-a]pyridin-7-yloxy)-3-methylphenyl)amino)pyrrolo[2,1-f][1,2,4]triazin-5-yl)-8-azabicyclo[3.2.1]octan-8-yl)-4-(dimethylamino)but-2-en-1-one] | 1500 to 5000 | < 200 | 200 to 500
C=CC(=O)N1C2CCC1CC(c1ccn3ncnc(Nc4ccc(Oc5ccn6ncnc6c5)c(C)c4)c13)C2 (single isomer, unassigned) [Examples 124 and 125, first eluting isomer, 1-(3-(4-((4-([1,2,4]triazolo[1,5-a]pyridin-7-yloxy)-3-methylphenyl)amino)pyrrolo[2,1-f][1,2,4]triazin-5-yl)-8-azabicyclo[3.2.1]octan-8-yl)prop-2-en-1-one] | < 200 | < 200 | < 200
C=C(CN(C)C)C(=O)N1C2CCC1CC(c1ccn3ncnc(Nc4ccc(Oc5ccn6ncnc6c5)c(C)c4)c13)C2 (single isomer, unassigned) [Examples 126 and 127, first eluting isomer, 1-(3-(4-((4-([1,2,4]triazolo[1,5-a]pyridin-7-yloxy)-3-methylphenyl)amino)pyrrolo[2,1-f][1,2,4]triazin-5-yl)-8-azabicyclo[3.2.1]octan-8-yl)-2-((dimethylamino)methyl)prop-2-en-1-one] | 1500 to 5000 | < 200 | 200 to 500
C=C(CN(C)C)C(=O)N1C2CCC1CC(c1ccn3ncnc(Nc4ccc(Oc5ccn6ncnc6c5)c(C)c4)c13)C2 (single isomer, unassigned) [Examples 126 and 127, second eluting isomer, 1-(3-(4-((4-([1,2,4]triazolo[1,5-a]pyridin-7-yloxy)-3-methylphenyl)amino)pyrrolo[2,1-f][1,2,4]triazin-5-yl)-8-azabicyclo[3.2.1]octan-8-yl)-2-((dimethylamino)methyl)prop-2-en-1-one] | 1500 to 5000 | 200 to 500 | 500 to 1500
C=C(CN(C)C)C(=O)N1CC2CCC1CC2c1ccn2ncnc(Nc3ccc(Oc4ccn5ncnc5c4)c(C)c3)c12 (single isomer, unassigned) [Examples 135 and 136, first eluting isomer, 1-(5-(4-((4-([1,2,4]triazolo[1,5-a]pyridin-7-yloxy)-3-methylphenyl)amino)pyrrolo[2,1-f][1,2,4]triazin-5-yl)-2-azabicyclo[2.2.2]octan-2-yl)-2-((dimethylamino)methyl)prop-2-en-1-one] | 1500 to 5000 | < 200 | < 200
C=C(CN(C)C)C(=O)N1CC2CCC1CC2c1ccn2ncnc(Nc3ccc(Oc4ccn5ncnc5c4)c(C)c3)c12 (single isomer, unassigned) [Examples 135 and 136, second eluting isomer, 1-(5-(4-((4-([1,2,4]triazolo[1,5-a]pyridin-7-yloxy)-3-methylphenyl)amino)pyrrolo[2,1-f][1,2,4]triazin-5-yl)-2-azabicyclo[2.2.2]octan-2-yl)-2-((dimethylamino)methyl)prop-2-en-1-one] | < 200 | < 200 | 200 to 500
Cc1cc(Nc2ncnn3ccc(C4CC5CCC4CN5C(=O)/C=C/CN(C)C)c23)ccc1Oc1ccn2ncnc2c1 (single isomer, unassigned) [Examples 137 and 138, second eluting isomer, (E)-1-(5-(4-((4-([1,2,4]triazolo[1,5-a]pyridin-7-yloxy)-3-methylphenyl)amino)pyrrolo[2,1-f][1,2,4]triazin-5-yl)-2-azabicyclo[2.2.2]octan-2-yl)-4-(dimethylamino)but-2-en-1-one] | 1500 to 5000 | 500 to 1500 | 1500 to 5000
C=CC(=O)N1CC2CCC1CC2c1ccn2ncnc(Nc3ccc(Oc4ccn5ncnc5c4)c(C)c3)c12 (single isomer, unassigned) [Examples 139 and 140, first eluting isomer, 1-(5-(4-((4-([1,2,4]triazolo[1,5-a]pyridin-7-yloxy)-3-methylphenyl)amino)pyrrolo[2,1-f][1,2,4]triazin-5-yl)-2-azabicyclo[2.2.2]octan-2-yl)prop-2-en-1-one] | 1500 to 5000 | < 200 | < 200
C=CC(=O)N1CC2CCC1CC2c1ccn2ncnc(Nc3ccc(Oc4ccn5ncnc5c4)c(C)c3)c12 (single isomer, unassigned) [Examples 139 and 140, second eluting isomer, 1-(5-(4-((4-([1,2,4]triazolo[1,5-a]pyridin-7-yloxy)-3-methylphenyl)amino)pyrrolo[2,1-f][1,2,4]triazin-5-yl)-2-azabicyclo[2.2.2]octan-2-yl)prop-2-en-1-one] | 1500 to 5000 | 500 to 1500 | 1500 to 5000
C=C(CN(C)C)C(=O)N1CCCC(c2ccn3ncnc(Nc4ccc(Oc5ccn6ncnc6c5)c(C)c4)c23)CC1 (single isomer, unassigned) [Examples 143 and 144, first eluting isomer, 1-(4-(4-((4-([1,2,4]triazolo[1,5-a]pyridin-7-yloxy)-3-methylphenyl)amino)pyrrolo[2,1-f][1,2,4]triazin-5-yl)azepan-1-yl)-2-((dimethylamino)methyl)prop-2-en-1-one] | 1500 to 5000 | < 200 | 500 to 1500
C=C(CN(C)C)C(=O)N1CCCC(c2ccn3ncnc(Nc4ccc(Oc5ccn6ncnc6c5)c(C)c4)c23)CC1 (single isomer, unassigned) [Examples 143 and 144, second eluting isomer, 1-(4-(4-((4-([1,2,4]triazolo[1,5-a]pyridin-7-yloxy)-3-methylphenyl)amino)pyrrolo[2,1-f][1,2,4]triazin-5-yl)azepan-1-yl)-2-((dimethylamino)methyl)prop-2-en-1-one] | 1500 to 5000 | < 200 | < 200
Cc1cc(Nc2ncnn3ccc(C4CCCN(C(=O)C(F)Cl)CC4)c23)ccc1Oc1ccn2ncnc2c1 (single isomer, unassigned) [Examples 145, 146, 147 and 148, first eluting isomer, 1-(4-(4-((4-([1,2,4]triazolo[1,5-a]pyridin-7-yloxy)-3-methylphenyl)amino)pyrrolo[2,1-f][1,2,4]triazin-5-yl)azepan-1-yl)-2-chloro-2-fluoroethan-1-one] | 1500 to 5000 | < 200 | 200 to 500
Cc1cc(Nc2ncnn3ccc([C@@H]4CCCN(C(=O)[C@H](F)Cl)CC4)c23)ccc1Oc1ccn2ncnc2c1 (single isomer, unassigned) [Examples 145, 146, 147 and 148, fourth eluting isomer] | 1500 to 5000 | 200 to 500 | 500 to 1500

Source: patent US20240132521A1, “COMPOUNDS AND METHODS FOR MODULATING HER2” (Iambic Therapeutics, Inc., priority 2022, published 2024)
